Where “and” joins values, the source holds several entries; their conditions need not be identical. Equal values may be shown once.

Assay type in all cases: cell-based
In assay [1] the target is T1, human TLR2 (Homo sapiens (Human), UniProt O60603). The assay can be described thus: HEK-Blue hTLR2 antagonism assay (SEAP reporter), agonist Pam2CSK4. The following applies: HEK-Blue hTLR2 cells; Pam2CSK4 (TLR2/6 agonist) at approx. 3×EC50; 18 h; 8-point dilutions. As to the method:
(§1) Synthetic diacylated lipoprotein (Pam2CSK4, TLR2/6 agonist) and synthetic triacylated lipoprotein (Pam3CSK4, TLR1/2 agonist) were obtained from InvivoGen and were dissolved in endotoxin-free water to a concentration 1 mg/mL, vortexed until complete solubilization, and stored in aliquots at −20° C. Prior to addition to cells, an aliquot of the dissolved ligand was vortexed shortly and then was diluted in medium to 25 ng/mL Pam2CSK4 or 1000 ng/mL Pam3CSK4.
(§2) Test compounds were solubilized fresh to 10-20 mM stocks in DMSO and sonicated for 5-10 minutes in a water bath sonicator. Serial dilutions were prepared in DMSO, and then diluted in medium. The final concentration of DMSO used in the assay was 1%.
(§3) HEK-Blue hTLR2 reporter cells (InvivoGen) are HEK-293 cells stably expressing both the human TLR2 gene and a secreted embryonic alkaline phosphatase (SEAP) reporter construct downstream of NFκB promotor sites. HEK-Blue hTLR2 reporters were cultured according to manufacturer's protocol using Dulbecco's Modified Eagle Medium (DMEM; Gibco) containing 1× GlutaMax (Gibco), 10% heat-inactivated Fetal Bovine Serum (Gibco), Pen-Strep (50 U/mL penicillin, 50 μg/mL streptomycin, Gibco), 100 μg/mL Normocin (InvivoGen), and the selective antibiotic, lx HEK-Blue Selection (InvivoGen). Quanti-Blue reagent (InvivoGen) for detection and quantification of secreted alkaline phosphatase was dissolved in 100 mL of endotoxin-free water, warmed to 37° C. for 30 minutes and then filtered using a 0.2 μm membrane.
(§4) On day 1, 50 μL of each test compound dilution in duplicates or a vehicle control was added to each well of a 96-well plate followed by addition of 150 μL of HEK-Blue hTLR2 cell suspension (1×10^5 cells/well) and incubated at 37° C./5% CO2 for 2 h. Next, 50 μL of an approximate 3×EC50 concentration of each agonist (Pam2CSK4 or Pam3CSK4) was added to the wells containing test compounds or the vehicle control. The plates were then incubated at 37° C./5% CO2 for 18 h. For each assay run, non-treated HEK-Blue hTLR2 cells were treated with serial dilutions of agonists to determine EC50 values for the respective run.
(§5) On day 2, secreted alkaline phosphatase (SEAP) activity was detected in cell culture supernatants. In brief, 20 μL was collected from each well and transferred to a 96-well plate. Next, 200 μL of Quanti-Blue detection reagent was added to each well. Plates were incubated at room temperature for 15 min and SEAP activity was assessed by spectrophotometer OD reading at 655 nm. […] IC50 values were calculated based on 8-point dilutions for each compound.

Assay [2] addresses T1, human TLR2. The assay can be described thus: HEK-Blue hTLR2 antagonism assay (SEAP reporter), agonist Pam3CSK4. The following applies: HEK-Blue hTLR2 cells; Pam3CSK4 (TLR1/2 agonist) at approx. 3×EC50; 18 h; 8-point dilutions. As to the method: as §1, §2, §3, §4, §5
The target of assay [3] is human TLR9 (Homo sapiens (Human), UniProt Q9NR96). The assay can be described thus: HEK-Blue hTLR9 antagonism assay (SEAP reporter), agonist ODN 2006. The following applies: HEK-Blue hTLR9 cells; ODN 2006 (TLR9 agonist) at approx. 3×EC50; 18 h; exact values 8-point, approximate (~ or <) 4-point dilutions; read-out: IC50 (μM) with ODN2006. As to the method:
Synthetic ODNs (ODN 2006 (ODN 7909), class B CpG oligonucleotide, TLR9 agonist) was obtained from InvivoGen and was dissolved in endotoxin-free water to a concentration 500 μM, vortexed until complete solubilization, and stored in aliquots at −20° C. Prior to addition to cells, an aliquot of the dissolved ligand was vortexed shortly and then was diluted in medium to 50 μM.
as §2
as §3, with “hTLR9” for “hTLR2”, “TLR9” for “TLR2”, “hTLR9 cells” for “hTLR2 reporters”, “antibiotics, 10 μg/mL Blasticidin (InvivoGen), and 100 μg/mL Zeocin” for “antibiotic, lx HEK-Blue Selection”
as §4, with “hTLR9” for “hTLR2”, “TLR9 agonist, ODN 2006,” for “each agonist (Pam2CSK4 or Pam3CSK4)”, “vehicle-treated” for “non-treated”, “agonist” for “agonists”
On day 2, secreted alkaline phosphatase (SEAP) activity was detected in cell culture supernatants. In brief, 30 μL was collected from each well and transferred to a 96-well plate. Next, 200 μL of Quanti-Blue detection reagent was added to each well. Plates were incubated at 37° C. for 60 min. and SEAP activity was assessed by spectrophotometer OD reading at 655 nm. […] Exact IC50 values were calculated based on 8-point dilutions for each compound. Approximate IC50 values (˜ or <) were calculated based on 4-point dilutions for each compound.

Chain of human TLR9 (Q9NR96 26-1032): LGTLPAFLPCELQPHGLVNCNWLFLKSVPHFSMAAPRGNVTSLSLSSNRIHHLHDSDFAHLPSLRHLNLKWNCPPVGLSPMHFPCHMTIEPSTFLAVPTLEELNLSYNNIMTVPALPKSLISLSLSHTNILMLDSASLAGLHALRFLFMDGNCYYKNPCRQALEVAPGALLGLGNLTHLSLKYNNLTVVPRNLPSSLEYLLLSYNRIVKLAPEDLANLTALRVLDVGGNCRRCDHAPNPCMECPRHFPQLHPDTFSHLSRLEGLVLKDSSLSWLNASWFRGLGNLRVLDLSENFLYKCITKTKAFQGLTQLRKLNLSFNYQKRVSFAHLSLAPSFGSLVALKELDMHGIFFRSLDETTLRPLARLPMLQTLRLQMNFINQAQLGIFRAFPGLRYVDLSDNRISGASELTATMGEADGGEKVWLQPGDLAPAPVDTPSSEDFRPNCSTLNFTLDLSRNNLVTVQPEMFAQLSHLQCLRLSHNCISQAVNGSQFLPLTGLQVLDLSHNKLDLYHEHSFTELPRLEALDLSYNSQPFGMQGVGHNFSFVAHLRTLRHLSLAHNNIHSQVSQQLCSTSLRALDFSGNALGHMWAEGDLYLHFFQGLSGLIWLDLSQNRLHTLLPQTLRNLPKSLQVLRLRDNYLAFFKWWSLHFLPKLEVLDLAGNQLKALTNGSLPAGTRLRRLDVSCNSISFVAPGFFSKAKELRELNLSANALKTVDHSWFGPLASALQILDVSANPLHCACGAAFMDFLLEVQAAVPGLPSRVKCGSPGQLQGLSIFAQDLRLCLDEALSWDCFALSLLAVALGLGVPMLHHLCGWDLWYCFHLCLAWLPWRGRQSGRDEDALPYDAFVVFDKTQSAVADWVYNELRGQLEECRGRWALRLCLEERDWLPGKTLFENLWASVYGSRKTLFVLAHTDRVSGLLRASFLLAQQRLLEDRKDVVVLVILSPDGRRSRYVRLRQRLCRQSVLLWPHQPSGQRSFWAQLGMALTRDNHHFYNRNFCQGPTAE
T1 sequence (O60603 21-784): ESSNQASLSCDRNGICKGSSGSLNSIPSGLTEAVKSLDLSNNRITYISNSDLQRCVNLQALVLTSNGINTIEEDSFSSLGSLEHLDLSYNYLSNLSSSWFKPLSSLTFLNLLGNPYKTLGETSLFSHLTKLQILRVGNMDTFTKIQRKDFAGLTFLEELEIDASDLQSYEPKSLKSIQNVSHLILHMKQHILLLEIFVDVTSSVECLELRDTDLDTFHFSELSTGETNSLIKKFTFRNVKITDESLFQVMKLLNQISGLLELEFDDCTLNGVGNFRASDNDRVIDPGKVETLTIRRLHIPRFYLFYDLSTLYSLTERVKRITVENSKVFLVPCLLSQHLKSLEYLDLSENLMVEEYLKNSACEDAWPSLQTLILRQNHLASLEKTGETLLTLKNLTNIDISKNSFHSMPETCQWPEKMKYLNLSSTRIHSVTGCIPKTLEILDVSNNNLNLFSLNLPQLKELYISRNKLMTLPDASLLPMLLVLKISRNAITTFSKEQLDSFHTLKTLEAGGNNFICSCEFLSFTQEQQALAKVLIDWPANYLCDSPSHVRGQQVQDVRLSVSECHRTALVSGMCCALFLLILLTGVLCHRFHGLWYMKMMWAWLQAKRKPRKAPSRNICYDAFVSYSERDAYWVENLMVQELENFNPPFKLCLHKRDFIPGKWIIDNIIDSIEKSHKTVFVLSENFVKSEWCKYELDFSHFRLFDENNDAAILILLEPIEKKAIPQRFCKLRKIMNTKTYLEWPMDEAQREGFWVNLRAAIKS

For `O=C(c1cc(F)c(O)c(/C=N/N2CCOCC2)c1)N1CCC(c2ccc(N3CCCC3)cc2)CC1` [Compound 164, (3-fluoro-4-hydroxy-5-((morpholinoimino)methyl)phenyl)(4-(4-(pyrrolidin-1-yl)phenyl)piperidin-1-yl)methanone], the IC50 in assay [1] came to 1.1 µM; in assay [2] it was 0.5 µM; in assay [3], 0.26 µM.
For `O=Cc1cc(C(=O)Nc2ncc(-c3ccc(F)cc3)s2)cc(F)c1O` [Compound 11, 3-fluoro-N-(5-(4-fluorophenyl)thiazol-2-yl)-5-formyl-4-hydroxybenzamide], the IC50 in assay [1] is 1 µM; in assay [2] it was 0.7 µM; in assay [3], 0.4 µM.
The corresponding values for `O=Cc1cc(C(=O)Nc2ncc(-c3ccccc3)s2)cc(F)c1O` [Compound 4, 3-fluoro-5-formyl-4-hydroxy-N-(5-phenylthiazol-2-yl)benzamide] are 0.9 µM, 0.5 µM and 0.2 µM.
Consider `Oc1c(F)cc(-c2nc(-c3ccc(N4CCCC4)cc3)ns2)cc1/C=N/N1CCOCC1` [Compound 166, 2-fluoro-6-((morpholinoimino)methyl)-4-(3-(4-(pyrrolidin-1-yl)phenyl)-1,2,4-thiadiazol-5-yl)phenol], for which the IC50 is 2.8 µM in assay [1]; 1 µM in assay [2]; 0.14 µM and 0.18 µM in assay [3].
Take `O=Cc1cc(C(=O)Nc2cnc(N3CCCCC3)s2)cc(F)c1O` [Compound 7, 3-fluoro-5-formyl-4-hydroxy-N-(2-(piperidin-1-yl)thiazol-5-yl)benzamide]: the IC50 is more than 100 µM in assay [1], more than 100 µM in assay [2] and more than 33 µM in assay [3].
Regarding `O=Cc1cc(-c2cnn(-c3ccc(C(F)(F)F)cc3)c2)cc(F)c1O` [Compound 127, 3-fluoro-2-hydroxy-5-(1-(4-(trifluoromethyl)phenyl)-1H-pyrazol-4-yl)benzaldehyde], the IC50 in assay [1] is 0.5 µM; in assay [2] it was 0.5 µM; in assay [3], 0.1 µM.
As to `O=Cc1cc(NC(=O)c2ncc(-c3ccccc3)s2)cc(F)c1O` [Compound 10, N-(3-fluoro-5-formyl-4-hydroxyphenyl)-5-phenylthiazole-2-carboxamide], the IC50 in assay [1] is 1.6 µM; in assay [2] it was 0.9 µM; in assay [3] it was approximately 1 µM.
The corresponding values for `O=Cc1cc(C(=O)Nc2nnc(-c3ccccc3)s2)cc(F)c1O` [Compound 2, 3-fluoro-5-formyl-4-hydroxy-N-(5-phenyl-1,3,4-thiadiazol-2-yl)benzamide] are 6.7 µM, 2.2 µM and approximately 0.5 µM.
In the same order, the values of `CN1CCN(/N=C/c2cc(-c3nc(-c4ccc(N5CCCC5)nc4)ns3)cc(F)c2O)CC1` [Compound 165, 2-fluoro-6-(((4-methylpiperazin-1-yl)imino)methyl)-4-(3-(6-(pyrrolidin-1-yl)pyridin-3-yl)-1,2,4-thiadiazol-5-yl)phenol] are 1.1 µM, 0.9 µM and 0.41 µM.
The corresponding values for `O=Cc1cc(C(=O)Nc2ncc(-c3cccc(N4CCCC4)c3)s2)cc(F)c1O` [Compound 12, 3-fluoro-5-formyl-4-hydroxy-N-(5-(3-(pyrrolidin-1-yl)phenyl)thiazol-2-yl)benzamide] are 0.6 µM, 0.6 µM and 0.2 µM.
For the molecule `O=Cc1cc(C(=O)Nc2cnc(N3CCCC3)c(C(F)(F)F)c2)cc(F)c1O` [Compound 19, 3-fluoro-5-formyl-4-hydroxy-N-(6-(pyrrolidin-1-yl)-5-(trifluoromethyl)pyridin-3-yl)benzamide], the IC50 is 0.4 µM in assay [1], 0.3 µM in assay [2] and 0.6 µM in assay [3].
The corresponding values for `O=Cc1cc(C(=O)Nc2nc(-c3ccc(N4CCCC4)cc3)ns2)cc(F)c1O` [Compound 167, 3-fluoro-5-formyl-4-hydroxy-N-(3-(4-(pyrrolidin-1-yl)phenyl)-1,2,4-thiadiazol-5-yl)benzamide] are 1.5 µM, 0.6 µM and 0.5 µM.
Consider `CN1CCN(/N=C/c2cc(C(=O)N3CCC(c4ccc(N5CCCC5)cc4)CC3)cc(F)c2O)CC1` [Compound 163, (3-fluoro-4-hydroxy-5-(((4-methylpiperazin-1-yl)imino)methyl)phenyl)(4-(4-(pyrrolidin-1-yl)phenyl)piperidin-1-yl)methanone], for which the IC50 in assay [1] turned out to be 0.6 µM; in assay [2] it was 0.4 µM; in assay [3], 0.26 µM.

By IC50 is commonly meant the concentration needed to halve the response being measured.

Source of the values: patent US20240043395A1, “COMPOUNDS AND COMPOSITIONS AS MODULATORS OF TLR SIGNALING” (Neuropore Therapies, Inc., priority 2020, published 2024).
